Data published in PubChem BioAssay (NCI).
“And” between values parts separate entries of the source, which are not always exact repeats. Equal values may be shown once.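 Following 48 hours of exposure in 96-well plates, responses at five concentrations were used to interpolate endpoints linearly. TGI: concentration producing complete growth inhibition.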

Tests used:
Test in all cases: NCI-60 cell line screen, 48 h
A498 renal = system: A498 renal
CAKI-1 renal = system: CAKI-1 renal
IGROV1 ovarian = system: IGROV1 ovarian
LOX IMVI melanoma = system: LOX IMVI melanoma
NCI-H460 lung = system: NCI-H460 lung
SK-MEL-2 melanoma = system: SK-MEL-2 melanoma
SK-MEL-28 melanoma = system: SK-MEL-28 melanoma
SNB-75 CNS = system: SNB-75 CNS
U251 CNS = system: U251 CNS
UO-31 renal = system: UO-31 renal

SMILES | TGI (A498 renal) | TGI (CAKI-1 renal) | TGI (IGROV1 ovarian) | TGI (LOX IMVI melanoma) | TGI (NCI-H460 lung) | TGI (SK-MEL-2 melanoma) | TGI (SK-MEL-28 melanoma) | TGI (SNB-75 CNS) | TGI (U251 CNS) | TGI (UO-31 renal)
O=C1c2cc([N+](=O)[O-])sc2C(=O)c2ccsc21 | 4.37 µM | 2.55 µM | 0.878 µM | 0.225 µM | 0.853 µM | 3.11 µM | 0.555 µM | 2.71 µM | 0.373 µM | 2.59 µM
O=C(Oc1cccc(Cl)c1)c1cc2cc(CCl)ccc2oc1=O | – | > 100 µM | > 100 µM | > 100 µM | > 100 µM | 28.9 µM | > 100 µM | > 100 µM | – | > 100 µM
CC(C)c1cccc(C(C)C)c1OS(=O)(=O)NC(=O)OC(C(F)(F)F)C(F)(F)F | > 100 µM | > 100 µM | > 100 µM | > 100 µM | > 100 µM | > 100 µM | > 100 µM | – | > 100 µM | > 100 µM
O=C1NC2(C=Cc3c(ccc4ccccc34)O2)Oc2ccccc21 (stereo not given) | – | – | > 100 µM | 39.9 µM | > 100 µM | 56.5 µM | > 100 µM | 61.4 µM | 62.5 µM | 9.41 µM
CN(C)CCNc1nc2c(no[n+]2[O-])c2ccccc12 | 31.6 µM | 60.6 µM | 53 µM | 35.1 µM | > 100 µM | 40.4 µM | > 100 µM | 52.4 µM | 83.8 µM | 49.1 µM
O=C1N[C@@H](COc2ccc(C=Nc3ccc(CCc4ccc(N=Cc5ccc(OC[C@@H]6COC(=O)N6)cc5)cc4)cc3)cc2)CO1 | > 100 µM | > 100 µM | > 100 µM | > 100 µM | – | > 100 µM | > 100 µM | – | > 100 µM | > 100 µM
CC(=O)N(CN1C(=O)CCC1C(=O)O)c1ccccc1Cl (stereo not given) | > 100 µM | > 100 µM | > 100 µM | > 100 µM | > 100 µM | > 100 µM | > 100 µM | > 100 µM | > 100 µM | > 100 µM
OCC(O)C(O)C(O)C(O)/C=N/Nc1nc(O)c(/C=C2\C=Nc3ccccc32)[nH]1 (stereo not given) | > 100 µM | > 100 µM | > 100 µM | > 100 µM | > 100 µM | 97.7 µM | > 100 µM | > 100 µM | > 100 µM | –
O=S(=O)(/N=C(\NO)Nc1ccc(Cl)cc1)c1ccc(-c2ccccn2)s1 | – | 66 µM | > 100 µM | > 100 µM | > 100 µM | > 100 µM | > 100 µM | > 100 µM | > 100 µM | > 100 µM
OC(CN1CCCCC1)c1ccc(/C=C/c2ccc(Cl)cc2)cc1 (stereo not given) | > 100 µM | – | 66.5 µM | – | > 100 µM | 50.9 µM | 42.6 µM | – | > 100 µM | > 100 µM
COP(C)(=O)C(Cc1c[nH]c2ccccc12)NC(=O)OCc1ccccc1 (stereo not given) | > 100 µM | > 100 µM | > 100 µM | > 100 µM | > 100 µM | > 100 µM | > 100 µM | – | > 100 µM | > 100 µM
CSC1=C(C(=O)Nc2ccccc2)C(N)=NC1=O | > 100 µM | > 100 µM | – | > 100 µM | > 100 µM | > 100 µM | > 100 µM | > 100 µM | > 100 µM | > 100 µM
Cc1ccc2c(=O)c(-c3n[nH]c(=S)s3)c[nH]c2n1 | > 100 µM | > 100 µM | > 100 µM | > 100 µM | > 100 µM | > 100 µM | > 100 µM | – | > 100 µM | > 100 µM
NCCCC[C@H](N)C(=O)Nc1ccc(-c2nc3ccccc3s2)cc1Cl | 2.07 µM | 19.2 µM | 22.7 µM | – | 13.7 µM | 32.7 µM | 23.4 µM | 26.8 µM | 13.7 µM | 18.3 µM
c1ccc(CCn2cncn2)cc1 | – | – | > 100 µM | – | > 100 µM | – | > 100 µM | > 100 µM | > 100 µM | > 100 µM
COc1ccccc1N=C1SCCN1C(=S)Nc1ccc(S(=O)(=O)/N=C/N(C)C)cc1 | > 100 µM | > 100 µM | – | > 100 µM | > 100 µM | – | > 100 µM | 98.4 µM | > 100 µM | > 100 µM
C=CC1(c2ccc(OC)cc2)OCCCO1 | – | – | > 100 µM | > 100 µM | > 100 µM | > 100 µM | > 100 µM | > 100 µM | > 100 µM | > 100 µM
c1ccc(C2[C@@H]3CCCc4ccccc4C3=NN2c2ccccc2)cc1 (stereo not given in full) | > 100 µM | – | > 100 µM | > 100 µM | > 100 µM | – | > 100 µM | – | > 100 µM | > 100 µM
O=P1(c2ccccc2)C2=CCC=CC2C(c2ccccc2)N1Cc1ccccc1 (stereo not given) | – | 27 µM | 32.9 µM | – | 28.1 µM | 29.9 µM | – | – | 30.7 µM | 25.8 µM
CC(/C=N/NC1=NCCCN1)=N\NC1=NCCCN1 | – | > 100 µM | > 100 µM | > 100 µM | > 100 µM | – | > 100 µM | > 100 µM | > 100 µM | > 100 µM
CCC1(O)CC(OC2CC(N(C)C)C(OC3CC(O)C(OC4CCC(=O)C(C)O4)C(C)O3)C(C)O2)c2c(O)c3c(c(O)c2C1C(=O)OC)C(=O)c1cccc(O)c1C3=O (stereo not given) | – | 0.0098 µM | 0.0281 µM | – | – | 0.0247 µM | 0.0837 µM and 0.0571 µM | – | 1.42 µM | 0.0292 µM
CCN(CC)CCC(=O)c1ccc(Oc2ccc(F)cc2)cc1 | – | 30.9 µM | 36 µM | 28.8 µM | – | > 100 µM | 30.2 µM | 47.8 µM | 31.1 µM | –
COc1ccccc1NCC(=O)Nn1c(C)nc2ccc(S(=O)(=O)Nc3ccccc3OC)cc2c1=O | – | > 100 µM | > 100 µM | > 100 µM | > 100 µM | > 100 µM | > 100 µM | > 100 µM | > 100 µM | > 100 µM
CN1C(=O)N(C)C2(CCN(CCCCCCF)CC2)C1=O | – | > 100 µM | > 100 µM | > 100 µM | – | – | > 100 µM | > 100 µM | > 100 µM | > 100 µM
Cc1nc2c(=O)[nH]c3ccc(Cl)cc3c2o1 | > 100 µM | > 100 µM | > 100 µM | > 100 µM | > 100 µM | > 100 µM | – | > 100 µM | > 100 µM | > 100 µM
